Consider 10 compounds from patent US4200628A, “Novel aminoglycoside derivatives” (Shionogi & Co., Ltd., priority 1977, dated 1980).

Common to all, as to experiment: MIC, antimicrobial activity
Common to all, as to assay type: cell-based

For assay [1], the system named is Pseudomonas aeriginosa TB-151. As to conditions: for Minimum Inhibitory Concentration (MIC): Pseudomonas aeriginosa TB-151, tobramycin resistant strain; for MIC: Pseudomonas, TB151, read-out: Minimum Inhibitory Concentration (MIC), Pseudomonas aeriginosa TB-151, tobramycin resistant strain.
The subject of a further assay is Proteus vulgaris TB-615. The settings on record: for Minimum Inhibitory Concentration (MIC): Proteus vulgaris TB-615, tobramycin resistant strain; for MIC: Proteus vulgaris, TB615, Proteus vulgaris TB-615, tobramycin resistant strain, read-out: Minimum Inhibitory Concentration (MIC).
Assay [2] relates to Pseudomonas aeruginosa TB-121. The settings on record: for Minimum Inhibitory Concentration (MIC): Pseudomonas aeruginosa TB-121, tobramycin resistant strain; for MIC: Pseudomonas aeruginosa, TB121, Pseudomonas aeruginosa TB-121, tobramycin resistant strain, read-out: Minimum Inhibitory Concentration (MIC).
The test system of assay [3] is Staphylococcus epidermidis TB-775. As to conditions: for MIC: Staphylococcus epidermidis, TB775, Staphylococcus epidermidis TB-775, tobramycin resistant strain, read-out: Minimum Inhibitory Concentration (MIC); for Minimum Inhibitory Concentration (MIC): Staphylococcus epidermidis TB-775, tobramycin resistant strain.

≈ marks a conversion by molar mass, not a printed value.

Consider `NC[C@H]1O[C@H](O[C@H]2[C@H](O)[C@@H](O[C@H]3O[C@H](CO)[C@@H](O)[C@H](N)[C@H]3O)[C@H](NC(=O)C(O)C3CCCN3)C[C@@H]2N)[C@H](N)C[C@@H]1O` (some centres unmarked) [(5), 1-N-[2-hydroxy-2-(pyrrolidin-2-yl)acetyl]tobramycin], for which the results for the “Minimum Inhibitory Concentration (MIC)” value (in assay [1]; with Proteus vulgaris TB-615; in assay [2]) were 100.0 µg/mL, 100.0 µg/mL and 25.0 µg/mL, respectively. For the same compound, the MIC in assay [3] came out at 100 µg/mL (≈ 168 µM).

As to `NC[C@H]1O[C@H](O[C@H]2[C@H](O)[C@@H](O[C@H]3O[C@H](CO)[C@@H](O)[C@H](N)[C@H]3O)[C@H](NC(=O)C(O)C3CCNC3)C[C@@H]2N)[C@H](N)C[C@@H]1O` (some centres unmarked) [(1), 1-N-[2-hydroxy-2-(pyrrolidin-3-yl)acetyl]tobramycin], the MIC in assay [1] turned out to be 6.2 µg/mL (≈ 10.4 µM); with Proteus vulgaris TB-615, 12.5 µg/mL (≈ 21 µM); in assay [2] it was 6.2 µg/mL (≈ 10.4 µM); in assay [3], 6.2 µg/mL (≈ 10.4 µM).

Consider `NC[C@H]1O[C@H](O[C@H]2[C@H](O)[C@@H](O[C@H]3O[C@H](CO)[C@@H](O)[C@H](N)[C@H]3O)[C@H](NC(=O)C(O)C3CNC3)C[C@@H]2N)[C@H](N)C[C@@H]1O` (some centres unmarked) [(3), 1-N-[2-hydroxy-2-(azetidin-3-yl)acetyl]tobramycin], for which the MIC in assay [1] amounted to 3.1 µg/mL (≈ 5.34 µM); in the assay on Proteus vulgaris TB-615 it was 12.5 µg/mL (≈ 21.5 µM); in assay [2], 3.1 µg/mL (≈ 5.34 µM); in assay [3], 6.2 µg/mL (≈ 10.7 µM).

As to `NC[C@H]1O[C@H](O[C@H]2[C@H](O)[C@@H](O[C@H]3O[C@H](CO)[C@@H](O)[C@H](N)[C@H]3O)[C@H](NC(=O)C(O)C3CNCCN3)C[C@@H]2N)[C@H](N)C[C@@H]1O` (single isomer, unassigned) [(8), 1-N-[2-hydroxy-2-(piperazin-2-yl)acetyl]tobramycin], the “Minimum Inhibitory Concentration (MIC)” value in assay [1] was determined as 6.2 µg/mL; in the assay with Proteus vulgaris TB-615, 12.5 µg/mL; in assay [2], 6.2 µg/mL. Also, the MIC in assay [3] turned out to be 25 µg/mL (≈ 41 µM).

For `NC[C@H]1O[C@H](O[C@H]2[C@H](O)[C@@H](O[C@H]3O[C@H](CO)[C@@H](O)[C@H](N)[C@H]3O)[C@H](NC(=O)C(O)C3CCCN3)C[C@@H]2N)[C@H](N)C[C@@H]1O` (some centres unmarked) [(7), 1-N-[2-hydroxy-2-(pyrrolidin-2-yl)acetyl]tobramycin], the “Minimum Inhibitory Concentration (MIC)” value in assay [1] is 50.0 µg/mL; in the assay with Proteus vulgaris TB-615, > 100.0 µg/mL; in assay [2], 100.0 µg/mL; in assay [3], > 100.0 µg/mL.

For the compound `NC[C@H]1O[C@H](O[C@H]2[C@H](O)[C@@H](O[C@H]3O[C@H](CO)[C@@H](O)[C@H](N)[C@H]3O)[C@H](NC(=O)C(O)C3CCCN3)C[C@@H]2N)[C@H](N)C[C@@H]1O` (some centres unmarked) [(6), 1-N-[2-hydroxy-2-(pyrrolidin-2-yl)acetyl]tobramycin], the “Minimum Inhibitory Concentration (MIC)” value in assay [1] was 12.5 µg/mL; in the assay with Proteus vulgaris TB-615 it was 25.0 µg/mL; in assay [2], 6.2 µg/mL; in assay [3] it was 50.0 µg/mL.

As to `NC[C@H]1O[C@H](O[C@H]2[C@H](O)[C@@H](O[C@H]3O[C@H](CO)[C@@H](O)[C@H](N)[C@H]3O)[C@H](NC(=O)C(O)C3CNCCN3)C[C@@H]2N)[C@H](N)C[C@@H]1O` (single isomer, unassigned) [(9), 1-N-[2-hydroxy-2-(piperazin-2-yl)acetyl]tobramycin], the “Minimum Inhibitory Concentration (MIC)” value was determined as 25.0 µg/mL in assay [1], 50.0 µg/mL in the assay with Proteus vulgaris TB-615, 12.5 µg/mL in assay [2] and 50.0 µg/mL in assay [3].

With `NC[C@H]1O[C@H](O[C@H]2[C@H](O)[C@@H](O[C@H]3O[C@H](CO)[C@@H](O)[C@H](N)[C@H]3O)[C@H](NC(=O)C(O)C3CCN3)C[C@@H]2N)[C@H](N)C[C@@H]1O` (some centres unmarked) [(2), 1-N-[2-hydroxy-2-(azetidin-2-yl)acetyl]tobramycin], the MIC in assay [1] is 12.5 µg/mL (≈ 21.5 µM); in the assay on Proteus vulgaris TB-615, > 100 µg/mL; in assay [2] it was 12.5 µg/mL (≈ 21.5 µM); in assay [3], 100 µg/mL (≈ 172 µM).

On to `NC[C@H]1O[C@H](O[C@H]2[C@H](O)[C@@H](O[C@H]3O[C@H](CO)[C@@H](O)[C@H](N)[C@H]3O)[C@H](N)C[C@@H]2N)[C@H](N)C[C@@H]1O` [TOB, tobramycin, reference compound], for which the MIC in assay [1] stood at 100 µg/mL (≈ 214 µM); in the assay with Proteus vulgaris TB-615 it was 25 µg/mL (≈ 53.5 µM).

Regarding `NC[C@H]1O[C@H](O[C@H]2[C@H](O)[C@@H](O[C@H]3O[C@H](CO)[C@@H](O)[C@H](N)[C@H]3O)[C@H](NC(=O)C(O)C3CCCNC3)C[C@@H]2N)[C@H](N)C[C@@H]1O` (some centres unmarked) [(4), 1-N-[2-hydroxy-2-(piperidin-3-yl)acetyl]tobramycin], the MIC (in assay [1]; in the assay on Proteus vulgaris TB-615; in assay [2]; in assay [3]) was 25 µg/mL (≈ 41.1 µM) throughout.
